We go through 9 molecules from patent publication US20080091033A1, “Nonsolvate-Form Crystal of Polymethine Compound, Process for Producing the Same and Use Thereof” (YAMAMOTO CHEMICALS, INC., priority 2004, published 2008).

Counter-ions that a name gives are not always drawn. Bounds are passed on as bounds.

Usually melting point stands for the temperature of the solid-liquid transition.

The nature of one series: solubility in methanol and ethanol. The format is physicochemical. The following applies: solvent ethanol.
As for `CN1/C(=C\C=C2/CCC(/C=C/C3=[N+](C)c4ccccc4C3(C)C)=C2Cl)C(C)(C)c2ccccc21` [Example 5], the solubility in ethanol was at least 15%.
On to `CN1/C(=C\C=C2/CCC(/C=C/C3=[N+](C)c4ccccc4C3(C)C)=C2Cl)C(C)(C)c2ccccc21` [Example 4], for which the solubility in ethanol is recorded as at least 15%.
`CN1/C(=C\C=C2/CCC(/C=C/C3=[N+](C)c4ccccc4C3(C)C)=C2Cl)C(C)(C)c2ccccc21` [Example 1] displayed a solubility in ethanol of at least 15%.
Same read-out and setting: the result for `CN1/C(=C\C=C2/CCC(/C=C/C3=[N+](C)c4ccccc4C3(C)C)=C2Cl)C(C)(C)c2ccccc21` [Example 3] reads at least 15%; that for `CN1/C(=C\C=C2/CCC(/C=C/C3=[N+](C)c4ccccc4C3(C)C)=C2Cl)C(C)(C)c2ccccc21` [Example 2], at least 15%.

The same series, now with this note: solvent methanol.
`CN1/C(=C\C=C2/CCC(/C=C/C3=[N+](C)c4ccccc4C3(C)C)=C2Cl)C(C)(C)c2ccccc21` [Example 5] displayed a solubility in methanol of at least 15%.
For `CN1/C(=C\C=C2/CCC(/C=C/C3=[N+](C)c4ccccc4C3(C)C)=C2Cl)C(C)(C)c2ccccc21` [Example 4], the solubility in methanol is at least 15%.
On to `CN1/C(=C\C=C2/CCC(/C=C/C3=[N+](C)c4ccccc4C3(C)C)=C2Cl)C(C)(C)c2ccccc21` [Example 1], for which the solubility in methanol was at least 15%.
In the case of `CN1/C(=C\C=C2/CCC(/C=C/C3=[N+](C)c4ccccc4C3(C)C)=C2Cl)C(C)(C)c2ccccc21` [Example 3], the solubility in methanol was at least 15%.
Turning to `CN1/C(=C\C=C2/CCC(/C=C/C3=[N+](C)c4ccccc4C3(C)C)=C2Cl)C(C)(C)c2ccccc21` [Example 2], the solubility in methanol is recorded as at least 15%.

A short description of another series: solution stability test (decomposition percentage from absorbance before and after standing). It is filed as physicochemical. The following applies: 5% (w/v) in ethanol/methyl ethyl ketone (1/1 by volume), room temperature, 10 days of standing. How it is done: A solution stability test was carried out in the following manner.
Each polymethine compound specified below in Table 1 was dissolved in a mixture of ethanol and methyl ethyl ketone (1/1 by volume) to a concentration of 5% (w/v) and the solution was allowed to stand in a room (at room temperature) for 10 days. The absorbance (gram extinction coefficient) of the solution was measured before and after standing, and the decomposition percentage was calculated using the following formula.
Decomposition percentage (%)=[(absorbance just after preparation of solution−absorbance after 10 days of standing)/(absorbance just after preparation of solution)]×100
On to `CN1/C(=C\C=C2/CCC(/C=C/C3=[N+](C)c4ccccc4C3(C)C)=C2Cl)C(C)(C)c2ccccc21` [Example 4], for which the Decomposition percentage turned out to be 1.9%.
In the case of `CN1/C(=C\C=C2/CCC(/C=C/C3=[N+](C)c4ccccc4C3(C)C)=C2Cl)C(C)(C)c2ccccc21` [Example 1], the Decomposition percentage is recorded as 2.0%.
With `CN1/C(=C\C=C2/CCC(/C=C/C3=[N+](C)c4ccccc4C3(C)C)=C2Cl)C(C)(C)c2ccccc21` [Example 3], the Decomposition percentage is 2.2%.
The molecule `CN1/C(=C\C=C2/CCC(/C=C/C3=[N+](C)c4ccccc4C3(C)C)=C2Cl)C(C)(C)c2ccccc21` [Example 2] displayed a Decomposition percentage of 2.1%.
`CN1/C(=C\C=C2/CCC(/C=C/C3=[N+](C)c4ccccc4C3(C)C)=C2Cl)C(C)(C)c2ccccc21` [Comparative Example 1, reference compound]: the Decomposition percentage came out at 8.1%.

Test in another series: not given
Details: not given
Take `CN1/C(=C\C=C2/CCC(/C=C/C3=[N+](C)c4ccccc4C3(C)C)=C2Cl)C(C)(C)c2ccccc21` (as salt: toluenesulfonate) (hydrate or solvate) [Example 2]: the melting point was 201 to 203 °C (dec.).
On to `CN1/C(=C\C=C2/CCC(/C=C/C3=[N+](C)c4ccccc4C3(C)C)=C2Cl)C(C)(C)c2ccccc21` (as salt: toluenesulfonate) (hydrate or solvate) [Example 3], for which the melting point was 198 to 199 °C (dec.).
On to `CN1/C(=C\C=C2/CCC(/C=C/C3=[N+](C)c4ccccc4C3(C)C)=C2Cl)C(C)(C)c2ccccc21` (as salt: toluenesulfonate) (hydrate or solvate) [Example 1], for which the melting point is 199 to 200 °C (dec.).
